# Patent publication US5919761A, “Peptides for heparin and low molecular weight heparin anticoagulation reversal” (The Board of Regents of the University of Michigan, priority 1995, dated 1999)
# Where “and” joins values, the source holds several entries; their conditions need not be identical. Identical values can stand only once. Peptide text beside a SMILES is read from it.
# Columns and labels:
# [1] = Hemodynamic studies and total toxicity score after standard heparin reversal, canine study; details: dogs
# Method: As used hereinafter, the peptides will be identified by their total cationic charge value, e.g., [+8], [+16], etc.
# Hemodynamic studies were conducted by measuring mean arterial pressure (MAP), heart rate (HR), and maximum percent changes in cardiac output (CO) and systemic oxygen consumption (VO2).
# Total toxicity scores (TTS) were developed that reflected maximum declines in each of four parameters (MAP, CO, VO2 and HR) over the first 5 minutes after reversal, the latter being the time of expected greatest adverse hemodynamic effect. The maximum changes occurring in an individual dog over the first 5 minutes were divided by the standard deviation derived from the entire group of tested animals and the four scores were added, resulting in a TTS for each individual dog. The TTS values for each dog were then summed to obtain an average TTS and SD for each peptide studied.
# [2] = Platelet and white cell counts after standard heparin reversal, canine study; format: in vivo; details: dogs, 3 minutes post-reversal, resolved by about 30 minutes
# Method: Anticoagulation reversal was assessed by a number of standard coagulation tests performed upon samples of venous blood: activated clotting time (ACT), prothrombin time (PT), activated partial thromboplastin time (aPTT), thrombin clotting time (TCT), heparin concentration by assay for FXa inhibitory activity (FXa), white cell count (WBC), and platelet counts (PLT). Measurements were made 3 minutes prior to heparin reversal (baseline) and 3 minutes and 30 minutes post-administration of the heparin reversal agent. The "Heparin" row sets forth the observed reversal as a consequence of expected heparin metabolism or degradation alone.
# [3] = Maximum hemodynamic changes and total toxicity score after Enoxaparin reversal, canine study; details: dogs, agent over 10 seconds
# Method: (§2) Seven female dogs (mean weight 15-20 kg) received intravenous standard, unfractionated heparin (150 IU/kg IV) or LMWH (Enoxaparin, Rhone-Poulac, France; 100 IU/kg factor Xa activity) followed by reversal with commercial salmine protamine (n-protamine purchased from Eli Lilly, Indianapolis, Ind., 1.5 mg/kg (100 IU/mg) IV) or an anticoagulation-reversing agent which is a protamine-like peptide variant identified hereinbelow. In these studies, the anticoagulation-reversing agents were administered over a 10 second interval to maximize the hemodynamic effects.
# [4] = Maximum hemodynamic changes and total toxicity score after standard heparin reversal, cell adhesion ligand analogs, canine study; details: dogs, agent over 10 seconds
# Method: In these studies, the anticoagulation-reversing agents were administered over a 10 second interval to maximize the hemodynamic effects.
# Hemodynamic studies were conducted by measuring mean blood pressure (Mean BP) in mm Mercury, maximum percent changes in cardiac output (CO) and systemic oxygen consumption (VO2), and heart rate (HR) in beats per minute. Measurements and calculations were made at baseline, before administration of standard, unfractionated heparin, 3 minutes before reversal, every 30 seconds for 5 minutes after reversal.
# Total toxicity scores (TTS) were developed in accordance with the method described hereinabove that reflected maximum declines in each of four parameters (MAP, CO, VO2 and HR) over the first 5 minutes after reversal.
# [5] = Hemodynamic studies and total toxicity score after LMWH reversal at different rates, canine study; details: dogs, Logiparin
# Method: (§3) The anticoagulation-reversing agents were administered rapidly over 10 seconds to maximize hemodynamic effects or more slowly over a 3 minute interval. Changes in LMWH anticoagulation occurring from metabolism alone were determined in a separate group of dogs not given any reversal agent.
# Hemodynamic studies were conducted by measuring mean arterial pressure (MAP) in mm Mercury, maximum percent changes in cardiac output (CO) and systemic oxygen consumption (VO2), and heart rate (HR) in beats per minute. Measurements and calculations were made at baseline, before LMWH administration, 3 minutes before reversal, every 30 seconds for 5 minutes after reversal, and at 10, 20, and 30 minutes after reversal.
# (§4) TTS were developed that reflected maximum declines in each of four parameters (MAP, CO, VO2 and HR) over the first 5 minutes after reversal in the same manner as described hereinabove.
# [6] = Platelet count, leukocyte count and bleeding time after LMWH reversal at different rates, canine study; format: in vivo, dogs
# Method: as §3
# [7] = Hemodynamic studies and total toxicity score after standard heparin reversal at different rates, dogs
# Method: Hemodynamic studies were conducted by measuring mean arterial pressure (MAP) in mm Mercury, maximum percent changes in cardiac output (CO) and systemic oxygen consumption (VO2), and heart rate (HR) in beats per minute. Measurements and calculations were made at baseline, before LMWH administration, 3 minutes before reversal, every 30 seconds for 5 minutes after reversal.
# as §4
# [8] = Percent change in platelet count after standard heparin reversal, cell adhesion ligand analogs, canine study; format: in vivo; details: dogs, agent over 10 seconds
# Method: In addition to hemodynamic changes, Table 15 lists the percent change in platelet count following administration of n-protamine and the selected variants, as well as the factor Xa and factor IIa reversal, as a percent change at 3 minutes post administration of the compound.
# [9] = Percent change in platelet count after Enoxaparin reversal, canine study; format: in vivo; details: dogs, agent over 10 seconds
# Method: as §2
# [10] = tested on: standard heparin; assay: Percent reversal of standard heparin anticoagulation by peptide [+18BE] administered at different rates, dogs; format: in vivo
# [11] = tested on: LMWH (LHN-1, Logiparin); assay: Percent reversal of LMWH anticoagulation, agents administered at different rates, canine study; format: in vivo, dogs
# Method: (§1) Anticoagulation reversal was assessed by a number of standard coagulation tests performed upon samples of venous blood in the manner described hereinabove. Measurements were made 3 minutes prior to heparin reversal (baseline) and 3 minutes, 10 minutes, and 30 minutes post-administration of the heparin reversal agent.
# [12] = tested on: standard, unfractionated heparin; assay: Factor Xa and IIa reversal after standard heparin, cell adhesion ligand analogs, canine study; format: in vivo; details: dogs, 3 min post administration
# Method: as §1, with “agent. […] Referring to FIGS. 4a through 4d, compound [+18RGD] performs as well, or better, than n-protamine in the standard coagulation tests performed in these studies.” for “agent.”
# [13] = tested on: LMWH (Enoxaparin); assay: Factor Xa and IIa reversal after LMWH Enoxaparin, canine study; format: in vivo; details: dogs, 3 min
# Method: Similar studies were conducted to assess the ability of the protamine-like peptide analogs described in this section to reverse the anticoagulation effects of the LMWH, Enoxaparin. FIG. 5a through FIG. 5d are graphical representations of LMWH anticoagulation activities achieved by n-protamine (Protamine [+21]), and compounds [+18BE], [+18KDEL], and [+18RGD] plotted as a percent of reversal against time in minutes. […] Referring to FIG. 5c, compound [+18RGD] dramatically outperforms n-protamine in reversing the heparin antifactor Xa activity of Enoxaparin.
# [14] = dogs, Logiparin, administered over 10 sec
# [15] = dogs, Logiparin, administered over 3 min
# [16] = administered over 10 sec, 3 min
# [17] = administered over 10 sec, 10 min
# [18] = administered over 10 sec, 30 min
# [19] = administered over 3 min, 10 min
# [20] = administered over 3 min, 30 min
compound,measurement,setting,value
"NCCCC[C@H](NC(=O)[C@H](CCCCN)NC(=O)[C@H](CCCCN)NC(=O)[C@H](CCCCN)NC(=O)CNC(=O)CNC(=O)[C@H](CCCCN)NC(=O)[C@H](CCCCN)NC(=O)[C@H](CCCCN)NC(=O)[C@H](CCCCN)NC(=O)CNC(=O)CNC(=O)[C@H](CCCCN)NC(=O)[C@H](CCCCN)NC(=O)[C@H](CCCCN)NC(=O)[C@H](CCCCN)NC(=O)CNC(=O)CNC(=O)[C@H](CCCCN)NC(=O)[C@H](CCCCN)NC(=O)[C@H](CCCCN)NC(=O)[C@H](CCCCN)NC(=O)CNC(=O)CNC(=O)[C@H](CCCCN)NC(=O)[C@H](CCCCN)NC(=O)[C@H](CCCCN)NC(=O)[C@H](CCCCN)NC(=O)[C@@H]1CCCN1)C(=O)O [[+20], P(K4 G2)4 K4] (H-PKKKKGGKKKKGGKKKKGGKKKKGGKKKK-OH)",ΔHR,[1],-38
same,ΔMAP,[1]; average maximum decline in first five minutes after peptide administration,-31
same,average total toxicity score (TTS±SD),"[1]; first 5 minutes after reversal, more negative = more toxic",-6.1±3.5
same,ΔCO,[1]; maximum percent change,-40%
same,ΔVO2,[1]; maximum percent change,-31%
same,platelet counts,[2],thrombocytopenia
"CC(=O)N[C@@H](CCC(=O)O)C(=O)N[C@@H](C)C(=O)N[C@@H](C)C(=O)N[C@@H](CCCCN)C(=O)N[C@@H](CCCCN)C(=O)N[C@@H](C)C(=O)N[C@@H](C)C(=O)N[C@@H](CCCCN)C(=O)N[C@@H](CCCCN)C(=O)N[C@@H](C)C(=O)N[C@@H](CCCCN)C(=O)N[C@@H](CCCCN)C(=O)N[C@@H](C)C(=O)N[C@@H](C)C(=O)N[C@@H](CCCCN)C(=O)N[C@@H](CCCCN)C(=O)N[C@@H](C)C(=O)N[C@@H](CCCCN)C(=O)N[C@@H](CCCCN)C(=O)N[C@@H](C)C(=O)N[C@@H](C)C(=O)N[C@@H](CCCCN)C(=O)N[C@@H](CCCCN)C(=O)N[C@@H](C)C(=O)N[C@@H](CCCCN)C(=O)N[C@@H](CCCCN)C(=O)N[C@@H](C)C(=O)N[C@@H](C)C(=O)N[C@@H](CCCCN)C(=O)N[C@@H](CCCCN)C(=O)N[C@@H](C)C(=O)N[C@@H](CCCCN)C(=O)N[C@@H](CCCCN)C(N)=O [[+18BE], acetyl-EA2 (K2 A2 K2 A)4 K2 amide] (Ac-EAAKKAAKKAKKAAKKAKKAAKKAKKAAKKAKK-NH2)","Maximum hemodynamic change, Mean BP","[3]; Enoxaparin 100 IU/kg, 5 minutes",-1 mm Mercury
same,Total Toxicity Score (TTS),[3]; Enoxaparin,-3.89 and -3.89 ± 2.37
same,"Maximum hemodynamic change, CO","[3]; Enoxaparin, 5 minutes",-5%
same,"Maximum hemodynamic change, HR","[3]; Enoxaparin, 5 minutes",-4 beats/min
same,"Maximum hemodynamic change, VO2","[3]; Enoxaparin, 5 minutes",-6%
same,"Maximum hemodynamic change, Mean BP","[4]; standard heparin 150 IU/kg IV, 5 minutes",-1 mm Mercury
same,"Maximum hemodynamic change, CO","[4]; standard heparin, 5 minutes",-9%
same,"Maximum hemodynamic change, HR","[4]; standard heparin, 5 minutes",-8 beats/min
same,"Maximum hemodynamic change, VO2","[4]; standard heparin, 5 minutes",-9%
same,Total Toxicity Score,[4]; standard unfractionated heparin,-2.41 ± 0.47
same,Total Toxicity Score,[5]; administered over 10 sec,-2.3 ± 3.6
same,ΔCO,[5]; administered over 10 sec,-11%
same,ΔHr,[5]; administered over 10 sec,-13 beats per minute
same,ΔMAP,[5]; administered over 10 sec,-8 mm Mercury
same,ΔVO2,[5]; administered over 10 sec,-12%
same,Total Toxicity Score,[5]; administered over 3 min,-2.2 ± 1.7
same,ΔCO,[5]; administered over 3 min,-7%
same,ΔHr,[5]; administered over 3 min,-5 beats per minute
same,ΔMAP,[5]; administered over 3 min,0 mm Mercury
same,ΔVO2,[5]; administered over 3 min,-10%
same,Maximal decline in leukocyte count,[6]; [14],-1%
same,Maximal thrombocytopenia,[6]; [14],-44%
same,Maximal decline in leukocyte count,[6]; [15],-7%
same,Maximal thrombocytopenia,[6]; [15],-49%
same,thrombocytopenia (platelet count change),"[6]; dogs, Logiparin, by 10 minutes, administered over a 3 minute interval",-8%
same,platelet count rebound,"[6]; dogs, Logiparin, by 30 minutes, administered over a 3 minute interval",+35%
same,bleeding time,"[6]; selected animals, given over a 3 minute interval",≤ 8 min
same,Total Toxicity Score,[7]; administered over 10 sec,-2.14 ± 0.40
same,ΔCO,[7]; administered over 10 sec,-9%
same,ΔHR,[7]; administered over 10 sec,-8 beats per minute
same,ΔMAP,[7]; administered over 10 sec,-1 mm Mercury
same,ΔVO2,[7]; administered over 10 sec,-9%
same,Total Toxicity Score,[7]; administered over 3 min,-1.96 ± 0.55
same,ΔCO,[7]; administered over 3 min,-17%
same,ΔHR,[7]; administered over 3 min,-8 beats per minute
same,ΔMAP,[7]; administered over 3 min,1 mm Mercury
same,ΔVO2,[7]; administered over 3 min,-10%
same,Platelet (percent change in platelet count),[8],-46%
same,Platelet (percent change in platelet count),[9],-35%
same,"Percent reversal of standard heparin anticoagulation, FNa",[10]; [16],100%
same,"Percent reversal of standard heparin anticoagulation, FXa",[10]; [16],99%
same,"Percent reversal of standard heparin anticoagulation, TCT",[10]; [16],100%
same,"Percent reversal of standard heparin anticoagulation, ACT",[10]; [17],98%
same,"Percent reversal of standard heparin anticoagulation, FNa",[10]; [17],99%
same,"Percent reversal of standard heparin anticoagulation, FXa",[10]; [17],95%
same,"Percent reversal of standard heparin anticoagulation, TCT",[10]; [17],98%
same,"Percent reversal of standard heparin anticoagulation, ACT",[10]; [18],96%
same,"Percent reversal of standard heparin anticoagulation, FNa",[10]; [18],100%
same,"Percent reversal of standard heparin anticoagulation, FXa",[10]; [18],97%
same,"Percent reversal of standard heparin anticoagulation, TCT",[10]; [18],98%
same,"Percent reversal of standard heparin anticoagulation, FNa","[10]; administered over 3 min, 3 min",99%
same,"Percent reversal of standard heparin anticoagulation, FXa","[10]; administered over 3 min, 3 min",99%
same,"Percent reversal of standard heparin anticoagulation, TCT","[10]; administered over 3 min, 3 min",100%
same,"Percent reversal of standard heparin anticoagulation, ACT",[10]; [19],98%
same,"Percent reversal of standard heparin anticoagulation, FNa",[10]; [19],98%
same,"Percent reversal of standard heparin anticoagulation, FXa",[10]; [19],97%
same,"Percent reversal of standard heparin anticoagulation, TCT",[10]; [19],100%
same,"Percent reversal of standard heparin anticoagulation, ACT",[10]; [20],98%
same,"Percent reversal of standard heparin anticoagulation, FNa",[10]; [20],99%
same,"Percent reversal of standard heparin anticoagulation, FXa",[10]; [20],96%
same,"Percent reversal of standard heparin anticoagulation, TCT",[10]; [20],100%
same,"Percent reversal of standard heparin anticoagulation, ACT","[10]; dogs (n=7), administered over 10 sec, 3 min post-administration",95%
same,"Percent reversal of standard heparin anticoagulation, ACT","[10]; dogs (n=7), administered over 3 min, 3 min post-administration",98%
same,"Percent reversal of LMWH anticoagulation, FNa",[11]; [16],99%
same,"Percent reversal of LMWH anticoagulation, FXa",[11]; [16],73%
same,"Percent reversal of LMWH anticoagulation, TCT",[11]; [16],100%
same,"Percent reversal of LMWH anticoagulation, ACT",[11]; [17],78%
same,"Percent reversal of LMWH anticoagulation, FNa",[11]; [17],83%
same,"Percent reversal of LMWH anticoagulation, FXa",[11]; [17],51%
same,"Percent reversal of LMWH anticoagulation, TCT",[11]; [17],95%
same,"Percent reversal of LMWH anticoagulation, ACT",[11]; [18],81%
same,"Percent reversal of LMWH anticoagulation, FNa",[11]; [18],79%
same,"Percent reversal of LMWH anticoagulation, FXa",[11]; [18],59%
same,"Percent reversal of LMWH anticoagulation, TCT",[11]; [18],95%
same,"Percent reversal of LMWH anticoagulation, FNa","[11]; administered over 3 min, 3 min",94%
same,"Percent reversal of LMWH anticoagulation, FXa","[11]; administered over 3 min, 3 min",91%
same,"Percent reversal of LMWH anticoagulation, TCT","[11]; administered over 3 min, 3 min",100%
same,"Percent reversal of LMWH anticoagulation, ACT",[11]; [19],95%
same,"Percent reversal of LMWH anticoagulation, FNa",[11]; [19],99%
same,"Percent reversal of LMWH anticoagulation, FXa",[11]; [19],68%
same,"Percent reversal of LMWH anticoagulation, TCT",[11]; [19],100%
same,"Percent reversal of LMWH anticoagulation, ACT",[11]; [20],97%
same,"Percent reversal of LMWH anticoagulation, FNa",[11]; [20],84%
same,"Percent reversal of LMWH anticoagulation, FXa",[11]; [20],60%
same,"Percent reversal of LMWH anticoagulation, TCT",[11]; [20],99%
same,"Percent reversal of LMWH anticoagulation, ACT","[11]; dogs, Logiparin, agent administered over 10 sec, 3 min post-administration",65%
same,"Percent reversal of LMWH anticoagulation, ACT","[11]; dogs, Logiparin, agent administered over 3 min, 3 min post-administration",89%
same,IIa Reversal,[12],100%
same,Xa Reversal,[12],99%
same,IIa Reversal,[13],88%
same,Xa Reversal,[13],40%
